Experimental data: PubChem BioAssay (NCI)
Where “and” joins values, the source holds several entries; their conditions need not be identical. Equal values may be shown once.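 Exposure lasted 48 hours, with cells grown in 96-well plates and compounds tested at five concentrations. At the GI50, growth is halved. TGI denotes the concentration required for complete inhibition of growth.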

Key:
Assay in all cases: DTP human tumour cell line panel, 48 h
OVCAR-8 ovarian = system: OVCAR-8 ovarian
M14 melanoma = system: M14 melanoma
UO-31 renal = system: UO-31 renal
786-0 renal = system: 786-0 renal
SF-539 CNS = system: SF-539 CNS
SK-MEL-2 melanoma = system: SK-MEL-2 melanoma
OVCAR-5 ovarian = system: OVCAR-5 ovarian
K-562 leukemia = system: K-562 leukemia
HL-60(TB) leukemia = system: HL-60(TB) leukemia
PC-3 prostate = system: PC-3 prostate

SMILES	GI50 (OVCAR-8 ovarian)	TGI (OVCAR-8 ovarian)	GI50 (M14 melanoma)	TGI (M14 melanoma)	GI50 (UO-31 renal)	TGI (UO-31 renal)	GI50 (786-0 renal)	TGI (786-0 renal)	GI50 (SF-539 CNS)	TGI (SF-539 CNS)	GI50 (SK-MEL-2 melanoma)	TGI (SK-MEL-2 melanoma)	GI50 (OVCAR-5 ovarian)	TGI (OVCAR-5 ovarian)	GI50 (K-562 leukemia)	TGI (K-562 leukemia)	GI50 (HL-60(TB) leukemia)	TGI (HL-60(TB) leukemia)	GI50 (PC-3 prostate)	TGI (PC-3 prostate)
COC(=O)c1c2c(c(C)[n+]([O-])c1C)C(=O)C(NCc1ccc(OC)cc1)=CC2=O	2.78 µM	> 100 µM	1.81 µM	3.71 µM	2.48 µM	10 µM	3.15 µM	18.8 µM	1.68 µM	3.39 µM	2.23 µM	5.88 µM	1.8 µM	4.06 µM	2.67 µM	> 100 µM	1.67 µM	5.25 µM	2.31 µM	10.4 µM
Cc1c(C(Cc2ccccc2N(C)C(=O)/C=C\C(=O)O)c2c[nH]c3ccccc23)c2ccccc2n1C (configuration not stated)	–	29.4 µM	–	39.5 µM	–	27.7 µM	–	35.9 µM	–	31.8 µM	–	–	–	35.6 µM	–	54.7 µM	–	23.9 µM	–	–
NC1=C(O)c2cccc3cccc(c23)C1=O	–	> 100 µM	–	> 100 µM	–	> 100 µM	–	> 100 µM	–	> 100 µM	–	> 100 µM	–	> 100 µM	–	> 100 µM	–	> 100 µM	–	–
Cc1cc(N(CCC#N)CCC#N)ccc1/C=C(\NC(=O)/C=C/c1ccccc1)C(=O)N=[N+]=[N-]	–	> 100 µM	–	> 100 µM	–	> 100 µM	–	> 100 µM	–	> 100 µM	–	> 100 µM	–	> 100 µM	–	> 100 µM	–	> 100 µM	–	–
CC(=O)N1C/C(=C\c2ccccc2)C(=O)/C(=C/c2ccccc2)C1	–	24.4 µM	–	17.9 µM	–	34.4 µM	–	30.2 µM	–	34.3 µM	–	56.6 µM	–	35.7 µM	–	12.8 µM	–	4.06 µM	–	–
O=C1C2C3CC4C5C3C1C5C1(SCCS1)C42 (configuration not stated)	–	> 100 µM	–	> 100 µM	–	> 100 µM	–	> 100 µM	–	> 100 µM	–	> 100 µM	–	–	–	> 100 µM	–	> 100 µM	–	–
C/C(=N/NC(=O)c1ccccc1S(N)(=O)=O)C(CN1CCCCC1)C(C1=C(O)C2C=CC=CC2OC1=O)c1ccccc1 (configuration not stated)	–	> 100 µM	–	> 100 µM	–	> 100 µM	–	> 100 µM	–	> 100 µM	–	> 100 µM	–	> 100 µM	–	> 100 µM	–	53.3 µM	–	–
Cn1cc(C2NC(=O)c3ccccc3N2)c2ccccc21 (configuration not stated)	–	> 100 µM	–	> 65.8 µM	–	> 100 µM	–	> 100 µM	–	6.87 µM	–	–	–	> 100 µM	–	–	–	0.485 µM	–	0.408 µM
CC(C)(CN1CCCCC1)C(=O)/C=C/c1ccccc1	–	49.5 µM	–	34.7 µM	–	39.6 µM	–	27.3 µM	–	22.9 µM	–	28.9 µM	–	40.4 µM	–	24.9 µM	–	–	–	–
COc1nc(NC2OC(COC(C)=O)C(OC(C)=O)C(OC(C)=O)C2OC(C)=O)c(N=CC=Nc2c(NC3OC(COC(C)=O)C(OC(C)=O)C(OC(C)=O)C3OC(C)=O)nc(OC)[nH]c2=O)c(=O)[nH]1 (configuration not stated)	–	> 100 µM	–	> 100 µM	–	> 100 µM	–	> 100 µM	–	> 100 µM	–	–	–	> 100 µM	–	> 100 µM	–	> 100 µM	–	–
O=c1c2ccccc2nc(-c2cccc([N+](=O)[O-])c2)n1O	–	63.9 µM	–	> 100 µM	–	> 100 µM	–	> 100 µM	–	> 100 µM	–	91.1 µM	–	> 100 µM	–	–	–	–	–	98.7 µM
O=C(N/N=C/c1ccc(Cl)cc1)c1ccc(NC(=O)c2ccccn2)cc1	35.7 µM	> 100 µM	56.8 µM	> 100 µM	11.2 µM	38.2 µM	20.7 µM	59.6 µM	15.8 µM	40.3 µM	17.7 µM	> 100 µM	68 µM	> 100 µM	> 100 µM	> 100 µM	–	–	17 µM	> 100 µM
N#CC(C(=O)CCCC(=O)Nc1ccccc1[N+](=O)[O-])c1c(Cl)cccc1Cl (configuration not stated)	–	> 100 µM	–	> 100 µM	–	> 100 µM	–	> 100 µM	–	> 100 µM	–	> 100 µM	–	> 100 µM	–	> 100 µM	–	> 100 µM	–	–
O=C(/C=C/c1ccccc1)NC1C=Nc2ccc([N+](=O)[O-])cc2NC1=O (configuration not stated)	–	> 100 µM	–	> 100 µM	–	> 100 µM	–	> 100 µM	–	> 100 µM	–	> 100 µM	–	> 100 µM	–	> 100 µM	–	> 100 µM	–	–
O=C(CCc1n[nH]c(=S)o1)Nc1cc(Cl)ccc1Cl	–	> 100 µM	–	> 100 µM	–	> 100 µM	–	99.2 µM	–	> 100 µM	–	–	–	> 100 µM	–	52.1 µM	–	78.9 µM	–	–
COc1ccc(-c2csc3c2-n2cccc2C3=O)cc1	0.068 µM	> 100 µM	–	–	0.049 µM	> 44.2 µM	0.0497 µM	> 100 µM	–	2.39 µM	0.0111 µM	> 79.9 µM	0.0946 µM	> 100 µM	0.00275 µM	–	0.00416 µM	0.0185 µM and 0.0984 µM	0.0317 µM	> 52.1 µM
COC(=O)C(=O)C(C#N)c1nc2ccccc2s1 (configuration not stated)	–	> 100 µM	–	> 100 µM	–	> 100 µM	–	> 100 µM	–	> 100 µM	–	> 100 µM	–	> 100 µM	–	> 100 µM	–	> 100 µM	–	–
CC(C)(C)CC(C)(C)c1ccc(OCCO)cc1	3.31 mg/L	> 75 mg/L	9.29 mg/L	20.6 mg/L	–	–	10.9 mg/L	33.7 mg/L	8.77 mg/L	19.5 mg/L	8.07 mg/L	18.7 mg/L	11.9 mg/L	27.5 mg/L	0.887 mg/L	> 75 mg/L	1.81 mg/L	31.6 mg/L	3.26 mg/L	16 mg/L
O=C(Cc1ccccc1)NN1C(=O)C(Cl)C1c1ccc(Cl)cc1 (configuration not stated)	–	> 100 µM	–	> 100 µM	–	> 100 µM	–	> 100 µM	–	–	–	> 100 µM	–	> 100 µM	–	> 100 µM	–	> 100 µM	–	–
CC1(OCc2ccccc2)C(=O)N2C1NCC2(C)C (configuration not stated)	–	> 100 µM	–	> 100 µM	–	> 100 µM	–	> 100 µM	–	> 100 µM	–	> 100 µM	–	–	–	> 100 µM	–	> 100 µM	–	–
